In patent publication US20170002055A1, “Novel peptides and combination of peptides for use in immunotherapy against ovarian cancer and other cancers” (immatics biotechnologies GmbH, priority 2015, published 2017):

Columns and labels:
HLA-A*02:01 = HLA-A*02:01 (Homo sapiens, UniProt P04439, D140Y/D185E/D98H/E176V/E277Q/G131W/G231S/I119V/I121R/I166T/I218V/L300P/L318F/N151K/N90K/P208A/P217A/Q86G/Q94H/R138H/R169H/T345S); assay: MHC binding assay (UV-ligand exchange, β2m ELISA, peptide exchange yield); conditions: MHC class I binding score; binding to HLA-A*02:01 ranged by peptide exchange yield (UV-ligand exchange, β2m ELISA)
Summary of the method: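 Binding is expressed as peptide exchange yield: stabilized MHC complexes were quantified by β2m ELISA, with a 450 nm TMB read-out on streptavidin-coated plates. Complexes came from UV-ligand exchange, where UV irradiation cleaves a photolabile peptide so the candidate peptide can load.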

CD8+ T cells = assay: In vitro immunogenicity: priming of CD8+ T cells with artificial APCs loaded with peptide/MHC and anti-CD28, multimer readout; type: cell-based, human; conditions: for Wells positive [%]: HLA-A*02 restricted peptides, percentage of positive wells; for donors: HLA-A*02, percentage of positive donors; for wells: HLA-A*02, percentage of positive wells
Description: In order to obtain information regarding the immunogenicity of the TUMAPs of the present invention, the inventors performed investigations using an in vitro T-cell priming assay based on repeated stimulations of CD8+ T cells with artificial antigen presenting cells (aAPCs) loaded with peptide/MHC complexes and anti-CD28 antibody.
In order to perform in vitro stimulations by artificial antigen presenting cells loaded with peptide-MHC complex (pMHC) and anti-CD28 antibody, the inventors first isolated CD8+ T cells from fresh HLA-A*02 leukapheresis products via positive selection using CD8 microbeads (Miltenyi Biotec, Bergisch-Gladbach, Germany) of healthy donors obtained from the University clinics Mannheim, Germany, after informed consent.
PBMCs and isolated CD8+ lymphocytes were incubated in T-cell medium (TCM) until use consisting of RPMI-Glutamax (Invitrogen, Karlsruhe, Germany) supplemented with 10% heat inactivated human AB serum (PAN-Biotech, Aidenbach, Germany), 100 U/ml Penicillin/100 μg/ml Streptomycin (Cambrex, Cologne, Germany), 1 mM sodium pyruvate (CC Pro, Oberdorla, Germany), 20 μg/ml Gentamycin (Cambrex). 2.5 ng/ml IL-7 (PromoCell, Heidelberg, Germany) and 10 U/ml IL-2 (Novartis Pharma, Nürnberg, Germany) were also added to the TCM at this step.
Generation of pMHC/anti-CD28 coated beads, T-cell stimulations and readout was performed in a highly defined in vitro system using four different pMHC molecules per stimulation condition and 8 different pMHC molecules per readout condition.
The purified co-stimulatory mouse IgG2a anti human CD28 Ab 9.3 (Jung et al., 1987) was chemically biotinylated using Sulfo-N-hydroxysuccinimidobiotin as recommended by the manufacturer (Perbio, Bonn, Germany). Beads used were 5.6 μm diameter streptavidin coated polystyrene particles (Bangs Laboratories, Illinois, USA).
pMHC used for positive and negative control stimulations were A*0201/MLA-001 (peptide […] (SEQ ID NO. 664) from modified Melan-A/MART-1) and A*0201/DDX5-001 ([…] from DDX5, SEQ ID NO. 665), respectively.
800.000 beads/200 μl were coated in 96-well plates in the presence of 4×12.5 ng different biotin-pMHC, washed and 600 ng biotin anti-CD28 were added subsequently in a volume of 200 μl. Stimulations were initiated in 96-well plates by co-incubating […] CD8+ T cells with 2×10^5 washed coated beads in 200 μl TCM supplemented with 5 ng/ml IL-12 (PromoCell) for 3 days at 37° C. Half of the medium was then exchanged by fresh TCM supplemented with 80 U/ml IL-2 and incubating was continued for 4 days at 37° C. This stimulation cycle was performed for a total of three times. For the pMHC multimer readout using 8 different pMHC molecules per condition, a two-dimensional combinatorial coding approach was used as previously described (Andersen et al., 2012) with minor modifications encompassing coupling to 5 different fluorochromes. Finally, multimeric analyses were performed by staining the cells with Live/dead near IR dye (Invitrogen, Karlsruhe, Germany), CD8-FITC antibody clone SK1 (BD, Heidelberg, Germany) and fluorescent pMHC multimers. For analysis, a BD LSRII SORP cytometer equipped with appropriate lasers and filters was used. Peptide specific cells were calculated as percentage of total CD8+ cells. Evaluation of multimeric analysis was done using the FlowJo software (Tree Star, Oregon, USA). In vitro priming of specific multimer+ CD8+ lymphocytes was detected by comparing to negative control stimulations.

| Substance | Peptide exchange (HLA-A*02:01) | Wells positive [%] (CD8+ T cells) | donors (CD8+ T cells) | wells (CD8+ T cells) |
| --- | --- | --- | --- | --- |
| 2 (SLLEADPFL; listed as Homo sapiens) [compound 2] | “+++” (≧50 = +++) | “+” (<20% = +) | – | – |
| 3 (SLASKLTTL; listed as Homo sapiens) [compound 3] | “++++” (≧75% = ++++) | “+” (<20% = +) | – | – |
| 5 (HLTEVYPEL; listed as Homo sapiens) [compound 5] | “+++” (≧50 = +++) | “+++” (50%-69% = +++) | – | – |
| 7 (SLVGLLLYL; listed as Homo sapiens) [compound 7] | “++++” (≧75% = ++++) | “++” (20%-49% = ++) | – | – |
| 8 (FTLGNVVGMYL; listed as Homo sapiens) [compound 8] | “++++” (≧75% = ++++) | “+” (<20% = +) | – | – |
| 11 (KIFEMLEGV; listed as Homo sapiens) [compound 11] | “+++” (≧50 = +++) | “+” (<20% = +) | – | – |
| 17 (GLLPGDRLVSV; listed as Homo sapiens) [compound 17] | “+++” (≧50 = +++) | “++” (20%-49% = ++) | – | – |
| 19 (FMVDNEAIYDI; listed as Homo sapiens) [compound 19] | “++++” (≧75% = ++++) | “++” (20%-49% = ++) | – | – |
| 36 (YVLEDLEVTV; listed as Homo sapiens) [compound 36] | “++” (≧20% = ++) | “+” (<20% = +) | – | – |
| 38 (FLLEDDIHVS; listed as Homo sapiens) [compound 38] | “+++” (≧50 = +++) | “+” (<20% = +) | – | – |
| 40 (TLLVKVFSV; listed as Homo sapiens) [compound 40] | “+++” (≧50 = +++) | “++” (20%-49% = ++) | – | – |
| 48 (ALAELYEDEV; listed as Homo sapiens) [compound 48] | “+++” (≧50 = +++) | “+” (<20% = +) | – | – |
| 49 (YLPAVFEEV; listed as Homo sapiens) [compound 49] | “+++” (≧50 = +++) | “++” (20%-49% = ++) | – | – |
| 56 (KLYEGIPVLL; listed as Homo sapiens) [compound 56] | “++++” (≧75% = ++++) | “+” (<20% = +) | – | – |
| 60 (SLTIDGIYYV; listed as Homo sapiens) [compound 60] | “++++” (≧75% = ++++) | “++++” (> = 70% = ++++) | – | – |
| 61 (FLQGYQLHL; listed as Homo sapiens) [compound 61] | “++++” (≧75% = ++++) | “++” (20%-49% = ++) | – | – |
| 79 (SLFIGEKAVLL; listed as Homo sapiens) [compound 79] | “+++” (≧50 = +++) | “+” (<20% = +) | – | – |
| 108 (ALFPGVALLLA; listed as Homo sapiens) [compound 108] | “++++” (≧75% = ++++) | “++” (20%-49% = ++) | – | – |
| 113 (GLLPTPLFGV; listed as Homo sapiens) [compound 113] | “+++” (≧50 = +++) | “+” (<20% = +) | – | – |
| 118 (KLIDNNINV; listed as Homo sapiens) [compound 118] | “+++” (≧50 = +++) | “+” (<20% = +) | – | – |
| 141 (YLDFSNNRL; listed as Homo sapiens) [compound 141] | “++” (≧20% = ++) | “+” (<20% = +) | – | – |
| 143 (LLLDITPEI; listed as Homo sapiens) [compound 143] | “++++” (≧75% = ++++) | “+” (<20% = +) | – | – |

| Substance | Peptide exchange (HLA-A*02:01) | Wells positive [%] (CD8+ T cells) | donors (CD8+ T cells) | wells (CD8+ T cells) |
| --- | --- | --- | --- | --- |
| 150 (RLWEEGEELEL; listed as Homo sapiens) [compound 150] | “+++” (≧50 = +++) | “+” (<20% = +) | – | – |
| 152 (ILFEDIFDV; listed as Homo sapiens) [compound 152] | “+++” (≧50 = +++) | “++” (20%-49% = ++) | – | – |
| 157 (SLNDEVPEV; listed as Homo sapiens) [compound 157] | “++” (≧20% = ++) | “+++” (50%-69% = +++) | – | – |
| 166 (YLNHLEPPV; listed as Homo sapiens) [compound 166] | “+++” (≧50 = +++) | “++++” (> = 70% = ++++) | – | – |
| 191 (LLQEGQALEYV; listed as Homo sapiens) [compound 191] | “++” (≧20% = ++) | “+++” (50%-69% = +++) | – | – |
| 198 (KTINKVPTV; listed as Homo sapiens) [compound 198] | “+++” (≧50 = +++) | “++” (20%-49% = ++) | – | – |
| 199 (ALQDVPLSSV; listed as Homo sapiens) [compound 199] | “+++” (≧50 = +++) | “+” (<20% = +) | – | – |
| 215 (QLINHLHAV; listed as Homo sapiens) [compound 215] | “+++” (≧50 = +++) | “++” (20%-49% = ++) | – | – |
| 242 (AIAYILQGV; listed as Homo sapiens) [compound 242] | “++” (≧20% = ++) | “+++” (50%-69% = +++) | – | – |
| 247 (VLLPNDLLEKV; listed as Homo sapiens) [compound 247] | “+++” (≧50 = +++) | “+” (<20% = +) | – | – |
| 283 (ALYIGDGYVIHLA; listed as Homo sapiens) [compound 283] | “+++” (≧50 = +++) | – | +++ (50%-69 = +++) | + (<20% = +) |
| 319 (SLEPQIQPV; listed as Homo sapiens) [compound 319] | “++” (≧20% = ++) | “+” (<20% = +) | – | – |
| 384 (ILFANPNIFV; listed as Homo sapiens) [compound 384] | “+++” (≧50 = +++) | “+” (<20% = +) | – | – |
| 395 (ALALGGIAVV; listed as Homo sapiens) [compound 395] | “++++” (≧75% = ++++) | “+++” (50%-69% = +++) | – | – |
| 443 (GLWEIENNPTV; listed as Homo sapiens) [compound 443] | “+++” (≧50 = +++) | “+” (<20% = +) | – | – |
| 446 (QLIPALAKV; listed as Homo sapiens) [compound 446] | “+++” (≧50 = +++) | “++” (20%-49% = ++) | – | – |
| 648 (LLWGNAIFL; listed as Homo sapiens) [compound 648] | – | – | +++ (50%-69 = +++) | ++ (20%-49% = ++) |
| 652 (TLWYRAPEV; listed as Homo sapiens) [compound 652] | – | – | ++++ (> = 70% = ++++) | +++ (50%-69 = +++) |
| 659 (ILFPDIIARA; listed as Homo sapiens) [compound 659] | – | – | +++ (50%-69 = +++) | + (<20% = +) |
| 662 (KIQEILTQV; listed as Homo sapiens) [compound 662] | – | – | +++ (50%-69 = +++) | + (<20% = +) |
| 663 (KIQEMQHFL; listed as Homo sapiens) [compound 663] | – | – | +++ (50%-69 = +++) | + (<20% = +) |
